Laboratory results from ChEMBL document CHEMBL1148338, “Structure-activity relationships at monoamine transporters for a series of N-substituted 3alpha-(bis[4-fluorophenyl]methoxy)tropanes: comparative molecular field analysis, synthesis, and pharmacological evaluation” (J Med Chem, 2004).

Tests used:
[1] = target: T1, Muscarinic acetylcholine receptor M1 (Rattus norvegicus, UniProt P08482); test: Binding affinity at muscarinic M1 receptor in rat brain by [3H]pirenzepine displacement.; type: tissue-based
T1 sequence (P08482 whole entry): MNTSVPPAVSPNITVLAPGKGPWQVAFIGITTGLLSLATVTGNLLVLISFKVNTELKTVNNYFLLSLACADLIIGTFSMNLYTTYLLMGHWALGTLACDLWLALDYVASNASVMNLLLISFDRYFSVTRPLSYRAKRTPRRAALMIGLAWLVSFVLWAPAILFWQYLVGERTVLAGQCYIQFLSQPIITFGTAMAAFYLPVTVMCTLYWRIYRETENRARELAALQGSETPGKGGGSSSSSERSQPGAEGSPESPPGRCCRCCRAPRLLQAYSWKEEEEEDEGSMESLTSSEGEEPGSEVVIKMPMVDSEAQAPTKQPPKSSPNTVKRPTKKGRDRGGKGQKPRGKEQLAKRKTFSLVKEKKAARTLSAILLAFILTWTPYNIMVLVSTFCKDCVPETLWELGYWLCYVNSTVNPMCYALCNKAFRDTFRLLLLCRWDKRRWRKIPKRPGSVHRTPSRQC

[2] = target: Sodium-dependent dopamine transporter (Rattus norvegicus, UniProt P23977); test: biochemical; type: tissue-based, Brain
Description: Binding affinity at dopamine transporter in rat brain by [3H]WIN-35428 displacement.

[3] = target: Sodium-dependent serotonin transporter (Rattus norvegicus, UniProt P31652); test: Binding affinity at serotonin transporter in rat brain by [3H]-citalopram displacement.; type: tissue-based
Rattus norvegicus = organism: Rattus norvegicus; test: Compound was tested for inhibition of [3H]dopamine uptake (DAUI) in rat synaptosomes; type: functional; settings: Brain
[4] = target: Norepinephrine transporter (Rattus norvegicus, UniProt Q9WTR4); test: Displacement of [3H]nisoxetine from norepinephrine transporter (NET) of rat brain; type: tissue-based
[5] = Partition coefficient (logD); settings: octanol/water

Sodium-dependent dopamine transporter, sequence (P23977 whole entry): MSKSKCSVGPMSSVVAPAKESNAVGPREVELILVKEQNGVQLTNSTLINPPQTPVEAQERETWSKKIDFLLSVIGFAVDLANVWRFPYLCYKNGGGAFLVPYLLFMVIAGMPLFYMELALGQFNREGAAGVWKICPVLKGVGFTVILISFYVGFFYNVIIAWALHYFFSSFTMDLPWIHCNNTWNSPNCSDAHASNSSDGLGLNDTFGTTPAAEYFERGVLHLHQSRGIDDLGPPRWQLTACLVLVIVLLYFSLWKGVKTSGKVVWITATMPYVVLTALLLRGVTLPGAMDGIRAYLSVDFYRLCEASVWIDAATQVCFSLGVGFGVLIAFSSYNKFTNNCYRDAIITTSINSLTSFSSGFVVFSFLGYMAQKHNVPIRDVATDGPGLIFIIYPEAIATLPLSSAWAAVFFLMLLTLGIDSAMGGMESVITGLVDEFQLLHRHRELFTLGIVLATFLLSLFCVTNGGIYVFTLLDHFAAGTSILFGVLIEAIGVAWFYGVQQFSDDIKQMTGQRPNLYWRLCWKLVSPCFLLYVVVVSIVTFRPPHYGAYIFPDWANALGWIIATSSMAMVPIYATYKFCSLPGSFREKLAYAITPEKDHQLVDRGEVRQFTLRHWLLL
Sodium-dependent serotonin transporter, sequence (P31652 whole entry): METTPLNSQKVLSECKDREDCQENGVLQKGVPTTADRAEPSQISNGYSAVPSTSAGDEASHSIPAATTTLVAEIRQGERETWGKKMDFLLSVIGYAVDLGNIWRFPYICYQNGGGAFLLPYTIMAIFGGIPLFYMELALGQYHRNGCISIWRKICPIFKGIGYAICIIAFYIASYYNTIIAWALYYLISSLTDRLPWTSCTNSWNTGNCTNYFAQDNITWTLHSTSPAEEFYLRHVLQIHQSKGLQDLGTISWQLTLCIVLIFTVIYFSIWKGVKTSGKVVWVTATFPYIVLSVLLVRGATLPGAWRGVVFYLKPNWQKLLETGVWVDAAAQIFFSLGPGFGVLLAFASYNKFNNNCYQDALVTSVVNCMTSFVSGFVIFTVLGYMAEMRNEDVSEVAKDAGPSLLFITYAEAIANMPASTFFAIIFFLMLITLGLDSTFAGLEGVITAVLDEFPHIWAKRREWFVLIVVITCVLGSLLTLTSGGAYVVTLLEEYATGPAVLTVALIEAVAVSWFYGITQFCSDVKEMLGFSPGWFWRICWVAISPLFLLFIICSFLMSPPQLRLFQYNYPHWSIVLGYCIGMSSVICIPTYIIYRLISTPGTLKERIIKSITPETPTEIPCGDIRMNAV
Norepinephrine transporter, sequence (Q9WTR4 whole entry): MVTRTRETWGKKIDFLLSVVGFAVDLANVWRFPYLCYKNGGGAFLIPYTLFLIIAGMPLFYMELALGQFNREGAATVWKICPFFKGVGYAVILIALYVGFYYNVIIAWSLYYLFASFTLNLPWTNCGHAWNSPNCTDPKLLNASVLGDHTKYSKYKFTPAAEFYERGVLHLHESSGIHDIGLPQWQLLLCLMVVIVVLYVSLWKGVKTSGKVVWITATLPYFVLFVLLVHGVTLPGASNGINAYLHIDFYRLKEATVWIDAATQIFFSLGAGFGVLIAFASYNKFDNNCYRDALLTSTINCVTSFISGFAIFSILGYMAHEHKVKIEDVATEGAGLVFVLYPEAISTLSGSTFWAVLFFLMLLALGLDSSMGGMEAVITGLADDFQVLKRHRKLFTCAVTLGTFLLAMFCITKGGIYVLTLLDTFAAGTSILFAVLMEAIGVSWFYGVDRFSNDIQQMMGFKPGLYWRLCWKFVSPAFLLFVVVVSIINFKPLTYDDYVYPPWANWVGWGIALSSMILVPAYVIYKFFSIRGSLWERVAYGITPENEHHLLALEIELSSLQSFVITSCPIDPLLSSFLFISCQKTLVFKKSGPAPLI

SMILES	Ki [1] [nM]	Ki [2] [nM]	Ki [3] [nM]	IC50 (Rattus norvegicus) [nM]	Ki [4] [nM]	logD [5]
Fc1ccc(C(OC2CC3CCC(C2)N3CCCOc2ccccc2)c2ccc(F)cc2)cc1 (centres undefined)	9280	703	7730	227	12100	
O=C(NCCN1C2CCC1CC(OC(c1ccc(F)cc1)c1ccc(F)cc1)C2)c1cccnc1 (centres undefined)				14.2		
O=C(NCCN1C2CCC1CC(OC(c1ccc(F)cc1)c1ccc(F)cc1)C2)c1ccccc1 (centres undefined)	556	13.1	597	6.5	637	
Fc1ccc(C(OC2CC3CCC(C2)N3CCOCCN2CCOCC2)c2ccc(F)cc2)cc1 (centres undefined)	15800	1620	23000	659	28100	2.05
O=C(CCN1[C@@H]2CC[C@H]1C[C@@H](OC(c1ccc(F)cc1)c1ccc(F)cc1)C2)Nc1ccccc1	3280	27.6	1490	5	1420	
NCCN1[C@@H]2CC[C@H]1C[C@@H](OC(c1ccc(F)cc1)c1ccc(F)cc1)C2			4600	26	1420	
Fc1ccc(C(OC2CC3CCC(C2)N3CCNCc2ccccc2)c2ccc(F)cc2)cc1 (centres undefined)				8.1		
Fc1ccc(C(OC2CC3CCC(C2)N3CCOCc2ccccc2)c2ccc(F)cc2)cc1 (centres undefined)	390	48.5	1300	22.3	3060	
OCCOCCN1C2CCC1CC(OC(c1ccc(F)cc1)c1ccc(F)cc1)C2 (centres undefined)	336	42.6	14300	48.9	3650	2.01
Fc1ccc(C(OC2CC3CCC(C2)N3CCOCc2cccs2)c2ccc(F)cc2)cc1 (centres undefined)	613	65.9	2090	18.7	3450	4.19
COC(=O)[C@@H]1C2CC[C@@H](C[C@@H]1OC(=O)c1ccccc1)N2C (single isomer, unassigned) [COCAINE]						1.51
